{"source": "paper PMC8132113", "about": "(Cancer letters, 2019)", "target": "ABCB1 (Homo sapiens, UniProt P08183)", "sequence (P08183 whole entry)": "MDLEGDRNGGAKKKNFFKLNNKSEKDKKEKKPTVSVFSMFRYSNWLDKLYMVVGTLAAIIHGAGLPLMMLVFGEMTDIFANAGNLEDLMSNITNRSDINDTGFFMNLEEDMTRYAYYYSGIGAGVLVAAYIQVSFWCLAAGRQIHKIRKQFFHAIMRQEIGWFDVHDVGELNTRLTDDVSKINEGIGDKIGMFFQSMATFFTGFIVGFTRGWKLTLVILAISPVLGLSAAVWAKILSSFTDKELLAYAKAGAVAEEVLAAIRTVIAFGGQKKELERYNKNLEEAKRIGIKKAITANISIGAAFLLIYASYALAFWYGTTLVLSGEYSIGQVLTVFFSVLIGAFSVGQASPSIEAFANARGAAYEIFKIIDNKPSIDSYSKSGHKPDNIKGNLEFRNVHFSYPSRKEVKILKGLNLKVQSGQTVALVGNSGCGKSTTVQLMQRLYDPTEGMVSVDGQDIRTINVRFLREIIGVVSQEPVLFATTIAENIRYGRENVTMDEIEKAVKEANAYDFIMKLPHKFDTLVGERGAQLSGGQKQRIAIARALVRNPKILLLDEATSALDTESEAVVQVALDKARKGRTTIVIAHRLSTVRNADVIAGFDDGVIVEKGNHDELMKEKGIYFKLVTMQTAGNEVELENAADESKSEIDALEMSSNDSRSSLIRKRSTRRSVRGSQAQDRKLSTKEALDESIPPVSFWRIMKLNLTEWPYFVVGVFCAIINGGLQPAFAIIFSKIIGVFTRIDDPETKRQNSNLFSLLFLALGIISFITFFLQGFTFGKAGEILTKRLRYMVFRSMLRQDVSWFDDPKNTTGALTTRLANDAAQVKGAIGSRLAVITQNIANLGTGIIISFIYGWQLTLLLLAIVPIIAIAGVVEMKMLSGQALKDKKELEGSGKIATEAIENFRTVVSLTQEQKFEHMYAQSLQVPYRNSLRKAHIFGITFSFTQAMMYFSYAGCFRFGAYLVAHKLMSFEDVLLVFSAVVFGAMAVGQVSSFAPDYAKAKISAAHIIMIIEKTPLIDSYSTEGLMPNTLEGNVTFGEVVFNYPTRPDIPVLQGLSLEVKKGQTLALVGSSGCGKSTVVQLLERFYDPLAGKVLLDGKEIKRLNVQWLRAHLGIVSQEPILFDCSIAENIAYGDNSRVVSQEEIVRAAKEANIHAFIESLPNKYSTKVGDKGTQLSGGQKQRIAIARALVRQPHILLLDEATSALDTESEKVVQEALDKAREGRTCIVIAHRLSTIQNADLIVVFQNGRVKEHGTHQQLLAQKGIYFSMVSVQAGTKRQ", "assay": "vanadate-sensitive ATPase assay", "format": "biochemical"}
{"smiles": "CO[C@@H]1[C@H](N(C)C(=O)c2ccccc2)C[C@H]2O[C@]1(C)n1c3ccccc3c3c4c(c5c6ccccc6n2c5c31)C(=O)NC4", "note": "[midostaurin]", "values": [{"measurement": "IC50", "value": "~10", "unit": "µM"}]}
